This is an account of results in patent US10512642B2, “Therapeutic targeting of myeloproliferative neoplasms by DUSP1 inhibition” (Children's Hospital Medical Center, priority 2015, dated 2019).

One data set has as its system JAK2. The conditions noted are these: peripheral neuropathy and Wernicke encephalopathy; termination from phase III clinical trials; cited from earlier work.
Another data set concerns MPN cells. In words: Colony forming unit (CFU) assay of MPN cells. The class given is cell-based, mouse. As to conditions: in vitro CFU assay. Here is the method:
To test this, hematopoietic CFU assays were performed using mouse bone marrow-derived Kit+ cells transduced with retroviruses expressing, pMSCV-Ires-GFP (vector), Jak2-V617F-Ires-GFP, Mpl-W515L-ires-GFP, and CSF3R-T618IIres-GFP.
Given the limitations of in vitro assays, performed in vivo experiments were then performed using bone marrow transduction transplantation assays. For in vivo analysis, mice were transplanted with 80-100 thousand bone marrow Kit^+ cells expressing Jak2-V617F-ires-GFP, CSF3R-T618I-Ires-GFP and MSCV-Ires-GFP (vector control). Mice received […] developed fatal MPD with a disease latency of 4-6 months.

The subject of another data set is BCR/ABL induced leukemia. The data set is described as follows: Retroviral bone marrow transduction transplantation CML model. The conditions noted are these: mouse model of CML.
The test system of the next data set is K562 cells. In words: Survival of K562 cells treated with imatinib +/- cytokines. The class given is cell-based, human.

Experimental for BCR/ABL induced leukemia: Kit^+ cells from mouse bone marrow were transduced with BCR/ABL-IRES-YFP retroviruses. Five thousand GFP^+ cells were plated for in vitro CFU assays, and 40,000 YFP^+ cells were transplanted for in vivo leukemia development in lethally irradiated C57Bl6 mice. […] Data shown are from two independent transplant experiments (n p=0.017). Below, Bar graphs illustrating leukemic burden in mice transplanted with BCR-ABL Kit^+ cells, measured by the level of YFP in peripheral blood as a surrogate for BCR/ABL expression.
For in vivo analysis, mice were transplanted with 40 thousand bone marrow Kit^+ cells expressing BCR/ABL and YFP.
To test c-Fos and Dusp1 as potential drug targets, in vitro and in vivo experiments were performed using small molecule inhibitors of c-Fos and Dusp1 (FIG. 5A). […] Representative data shown are the mean colony number from two independent experiments±S.D. (*=p<0.01, **=p<0.002). […] Data shown are from two independent transplant experiments (n=12; p=0.0285).
Next, in vivo efficacy was examined using a retroviral bone marrow transduction transplantation CML model.
Experimental for K562 cells: (J) Real-time qPCR analysis illustrating expression of c-FOS, DUSP1, and ZFP36 in primary CML patient peripheral blood mononuclear cells normalized to CD34+ cells from normal volunteers (black bar). Four chronic phase (CP) and three blast crisis (BC) patients were analyzed.
BaF3 cells were generated with tetracycline-inducible expression of BCR/ABL (BaF3-LTBA, FIG. 3A), as well as those with constitutive BCR/ABL expression (BAF3-BCR/ABL, FIG. 3B).

Turning to `Cc1cc(Nc2nc(N[C@@H](C)c3ncc(F)cn3)ncc2Cl)n[nH]1` [AZD1480], the neurological toxicity result in the data set on JAK2 is listed as “profound neurological toxicities”. Take `O=C1/C(=C/c2ccccc2)C(NC2CCCCC2)c2ccccc21` (stereo not drawn) [BCI, (E)-2-benzylidene-3-(cyclohexylamino)-2,3-dihydro-1H-inden-1-one]: the “targeting of MPN cells” value with MPN cells is listed as “selective targeting of MPN cells”. Further, in the data set with BCR/ABL induced leukemia, the bioavailability result is “bioavailable” and the “target inhibition in vivo” value is “inhibits its designated target”.

`Cc1cnc(Nc2ccc(OCCN3CCCC3)cc2)nc1Nc1cccc(S(=O)(=O)NC(C)(C)C)c1` [fedratinib]: in the data set on JAK2, the neurological toxicity entry is “profound neurological toxicities”.

`Cc1ccc(NC(=O)c2ccc(CN3CCN(C)CC3)cc2)cc1Nc1nccc(-c2cccnc2)n1` [imatinib]: the “effect of erythropoietin on imatinib response” value in the data set with K562 cells was “erythropoietin conferred imatinib resistance”.
